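These data come from cells grown in 96-well plates and exposed to compound for 48 hours at five concentrations. The concentration for 50% growth inhibition is given as GI50.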 The source made the active and inactive calls. Cut-off read from the data, not from the text of the source: active = GI50 up to about 1.1 µM and inactive = higher.
What was measured:
Assay in all cases: DTP human tumour cell line panel, 48 h
[1] = tested on: SNB-78
[2] = tested on: DMS-114
[3] = tested on: RXF 631
[4] = tested on: HOP-18
[5] = tested on: XF498
[6] = tested on: M19-MEL

Measured: GI50

CC1=CC2CC(C)C1(C)CCc1ccoc12 (stereo not drawn)
inactive: [1] > 100 µM | [2] > 100 µM | [3] > 100 µM | [4] > 100 µM | [5] > 100 µM | [6] > 100 µM

O=c1cc(-c2ccc(Cl)cc2)oc2cc(OCCCOc3ccc4c(=O)cc(-c5ccc(Cl)cc5)oc4c3)ccc12
inactive: [1] > 100 µM | [2] > 100 µM | [3] > 100 µM | [4] > 100 µM | [5] > 100 µM | [6] > 100 µM

CNc1ccc2ncccc2c1[N+](=O)[O-]
inactive: [1] > 100 µM | [2] > 100 µM | [3] > 100 µM | [4] > 100 µM | [5] > 100 µM | [6] > 100 µM

Source: ChEMBL document CHEMBL1201862, “PubChem BioAssay data set” (2004)
